Tests used:
in vitro = conditions: human, liver microsomes
Experimental: Intrinsic liver microsomal stability was determined using cryopreserved human liver microsomes. […] Following centrifugation 100 μL of the supernatant was transferred to a 96-well plate and analyzed by LC-MS/MS using test-article specific methods. Controls included absence of microsomes or co-factors or use of heat-denatured microsomes. Intrinsic clearance was calculated using the formula: (In(% Time 0/% Time 1)/T1−T0)×Volume of incubation/protein in the incubation.

[1] = system: TMD-8 human activated B cell diffuse large B cell lymphoma cells; assay: TMD-8 survival assay (Cell Titer-Glo); type: cell-based; conditions: TMD8, TMD-8 cells, 72 h
Experimental: TMD-8 human activated B cell diffuse large B cell lymphoma cells were seeded in 96-well plates at a density of 20,000 cells/well in HyClone RPMI supplemented with 10% FBS (Fisher)/1% Penicillin/Streptomycin (HyClone) and incubated at 37° C., 5% CO2. Cells were treated in triplicate with 1,000 nM or 100 nM curves of compounds for 72h. Cell survival was measured by Cell Titer-Glo Luminescent Assay (Promega). EC50 values (50% proliferation in the presence of compound as compared to vehicle treated controls) were calculated from dose response compound curves using GraphPad Prism Software.

human BTK = target: T1, human BTK (Homo sapiens, UniProt Q06187); assay: BTK kinase inhibition, KinaseProfiler radiometric protein kinase assay (Eurofins); type: biochemical
T1 construct: purchased Eurofins Pharma Discovery Services UK Limited (contract assay, KinaseProfiler)
T1 sequence (Q06187 whole entry): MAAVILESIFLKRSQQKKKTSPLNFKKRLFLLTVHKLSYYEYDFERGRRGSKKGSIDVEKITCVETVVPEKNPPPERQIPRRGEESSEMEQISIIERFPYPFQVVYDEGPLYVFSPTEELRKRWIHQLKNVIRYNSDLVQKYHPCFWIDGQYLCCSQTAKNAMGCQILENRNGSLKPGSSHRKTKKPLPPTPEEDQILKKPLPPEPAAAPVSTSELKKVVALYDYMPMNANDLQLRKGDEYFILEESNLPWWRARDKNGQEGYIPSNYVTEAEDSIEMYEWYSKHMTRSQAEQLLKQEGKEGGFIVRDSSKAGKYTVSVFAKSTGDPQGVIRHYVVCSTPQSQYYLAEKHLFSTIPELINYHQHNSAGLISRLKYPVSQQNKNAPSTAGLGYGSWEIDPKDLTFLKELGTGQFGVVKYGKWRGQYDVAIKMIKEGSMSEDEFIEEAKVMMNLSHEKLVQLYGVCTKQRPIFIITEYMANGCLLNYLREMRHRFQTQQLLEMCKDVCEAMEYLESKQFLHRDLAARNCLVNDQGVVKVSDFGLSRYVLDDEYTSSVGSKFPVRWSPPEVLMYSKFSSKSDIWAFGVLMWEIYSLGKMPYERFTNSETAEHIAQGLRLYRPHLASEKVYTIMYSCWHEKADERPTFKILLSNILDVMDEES
Experimental: (§1) In vitro potency of selected compound was defined against human BTK, EGFR, and ErbB2 kinases using Kinase Profiler radiometric protein kinase assays performed at Eurofins Pharma Discovery Services UK Limited.
(§2) Each kinase is diluted in buffer and all compounds were prepared to 50x final assay concentration in 100% DMSO. This working stock of the compound was added to the assay well as the first component in the reaction, followed by the remaining components as detailed in the assay protocol listed above. The reaction was initiated by the addition of the MgATP mix. […] (specific activity approx. 500 cpm/pmol, concentration as required) and variable test article concentrations. […] The reaction was stopped by the addition of 3% phosphoric acid solution. 10 μL of the reaction is then spotted onto a P30 filtermat and washed three times for 5 minutes in 75 mM phosphoric acid and once in methanol prior to drying and scintillation counting. In addition positive control wells contain all components of the reaction, except the compound of interest; however, DMSO (at a final concentration of 2%) were included in these wells to control for solvent effects as well as blank wells contain all components of the reaction, with a reference inhibitor replacing the compound of interest. This abolishes kinase activity and establishes the base-line (0% kinase activity remaining). The potency of each compound was reported by estimating the EC50.

human ErbB2 = target: T2, human ErbB2 (Homo sapiens, UniProt P04626); assay: ErbB2 kinase inhibition, KinaseProfiler radiometric protein kinase assay (Eurofins); type: biochemical; conditions: 40 min room temperature
T2 construct: purchased Eurofins Pharma Discovery Services UK Limited (contract assay, KinaseProfiler)
T2 sequence (P04626 23-1255): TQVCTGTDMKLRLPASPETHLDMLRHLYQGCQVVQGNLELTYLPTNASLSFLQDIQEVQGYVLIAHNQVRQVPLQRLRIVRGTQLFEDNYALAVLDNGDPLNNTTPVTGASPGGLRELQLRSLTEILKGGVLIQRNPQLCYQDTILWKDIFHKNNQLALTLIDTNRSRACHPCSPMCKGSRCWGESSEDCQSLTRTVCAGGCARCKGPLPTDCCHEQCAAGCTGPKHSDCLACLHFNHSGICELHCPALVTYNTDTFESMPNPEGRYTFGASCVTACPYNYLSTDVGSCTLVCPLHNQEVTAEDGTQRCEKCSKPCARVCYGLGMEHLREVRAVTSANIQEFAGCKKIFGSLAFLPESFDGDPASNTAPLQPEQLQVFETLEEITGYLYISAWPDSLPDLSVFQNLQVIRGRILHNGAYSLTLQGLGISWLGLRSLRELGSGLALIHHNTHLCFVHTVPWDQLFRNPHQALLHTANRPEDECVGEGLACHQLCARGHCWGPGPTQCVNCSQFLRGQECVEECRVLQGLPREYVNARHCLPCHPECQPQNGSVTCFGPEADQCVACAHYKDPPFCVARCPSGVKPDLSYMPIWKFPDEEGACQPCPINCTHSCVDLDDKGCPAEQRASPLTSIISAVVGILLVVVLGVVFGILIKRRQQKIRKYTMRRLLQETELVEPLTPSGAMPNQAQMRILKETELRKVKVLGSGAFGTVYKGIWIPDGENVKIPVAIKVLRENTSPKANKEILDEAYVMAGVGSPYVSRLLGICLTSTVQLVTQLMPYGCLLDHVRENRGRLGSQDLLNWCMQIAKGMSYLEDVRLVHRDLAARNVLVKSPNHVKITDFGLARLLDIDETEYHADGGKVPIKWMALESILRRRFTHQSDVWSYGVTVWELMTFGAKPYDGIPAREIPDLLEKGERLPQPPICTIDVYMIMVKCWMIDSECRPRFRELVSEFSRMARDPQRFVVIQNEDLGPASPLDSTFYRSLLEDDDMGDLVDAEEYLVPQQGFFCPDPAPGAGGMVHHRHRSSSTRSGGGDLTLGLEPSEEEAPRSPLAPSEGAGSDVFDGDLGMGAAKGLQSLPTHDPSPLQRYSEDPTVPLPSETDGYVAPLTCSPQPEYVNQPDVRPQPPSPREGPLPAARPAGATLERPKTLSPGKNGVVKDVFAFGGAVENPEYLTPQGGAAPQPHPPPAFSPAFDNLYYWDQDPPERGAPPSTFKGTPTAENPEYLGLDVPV
Experimental: as §1
as §2, with “In addition positive control wells contain all components of the reaction, except the compound of interest; however, DMSO (at a final concentration of 2%) were included in these wells to control for solvent effects as well as blank wells contain all components of the reaction, with a reference inhibitor replacing the compound of interest.” left out

[2] = Formation of glutathione adducts (GSH reactivity, HPLC-UV); type: in vitro ADME; conditions: 10 mM GSH, 20 micromolar test article, pH 7.4, 37° C.
Experimental: Generation of non-specific thiol adducts can be measured by assaying reactivity of compounds with GSH. Formation of GSH adducts was measured by incubating GSH (10 mM) in 100 mM Phosphate Buffer pH 7.4 with test article at 20 micromolar final concentration. Briefly, 600 microliters of phosphate buffer pH 7.4 was added in a glass vial with 200 microliters of 100 micromolar test article in DMSO. Samples were warmed at 37° C. for 10 minutes and the reaction was initiated by the addition of 200 microliters of 50 mM reduced GSH in phosphate buffer pH 7.4 and incubated at 37° C. At various time points (0.5 min, 5 min, 15 min, 30 min, 60 min, 120 min and 180 min) 50 microliter aliquots were placed into an injection vial equipped with an insert and mixed with 50 microliters of 1% formic acid in 99% Methanol. Vials were loaded onto the HPLC injection tray and each sample was injected onto a C18 column (ACE 3 C18, 4.6×50 mm column) and both the parent and product were monitored by UV absorbance at 254 nm on an Agilent Technologies 1100 series HPLC. Peaks were integrated and the percentage of product present calculated as the percent of the total peak area on the parent and product at 60 minutes.

EGFR = EGFR (Homo sapiens, UniProt P00533); assay: Inhibition of cellular EGFR (EGF-stimulated EGFR autophosphorylation in MDA-468 cells); type: cell-based; parameters: MDA-468 human breast tumor cells which express functional EGFR; endogenous in cells; host or cells: MDA-468 human breast tumor cells; conditions: 1 h pretreatment, 10 ng/mL EGF 5 min, phospho-EGFR/EGFR ratio
Sequence of EGFR (P00533 25-1210): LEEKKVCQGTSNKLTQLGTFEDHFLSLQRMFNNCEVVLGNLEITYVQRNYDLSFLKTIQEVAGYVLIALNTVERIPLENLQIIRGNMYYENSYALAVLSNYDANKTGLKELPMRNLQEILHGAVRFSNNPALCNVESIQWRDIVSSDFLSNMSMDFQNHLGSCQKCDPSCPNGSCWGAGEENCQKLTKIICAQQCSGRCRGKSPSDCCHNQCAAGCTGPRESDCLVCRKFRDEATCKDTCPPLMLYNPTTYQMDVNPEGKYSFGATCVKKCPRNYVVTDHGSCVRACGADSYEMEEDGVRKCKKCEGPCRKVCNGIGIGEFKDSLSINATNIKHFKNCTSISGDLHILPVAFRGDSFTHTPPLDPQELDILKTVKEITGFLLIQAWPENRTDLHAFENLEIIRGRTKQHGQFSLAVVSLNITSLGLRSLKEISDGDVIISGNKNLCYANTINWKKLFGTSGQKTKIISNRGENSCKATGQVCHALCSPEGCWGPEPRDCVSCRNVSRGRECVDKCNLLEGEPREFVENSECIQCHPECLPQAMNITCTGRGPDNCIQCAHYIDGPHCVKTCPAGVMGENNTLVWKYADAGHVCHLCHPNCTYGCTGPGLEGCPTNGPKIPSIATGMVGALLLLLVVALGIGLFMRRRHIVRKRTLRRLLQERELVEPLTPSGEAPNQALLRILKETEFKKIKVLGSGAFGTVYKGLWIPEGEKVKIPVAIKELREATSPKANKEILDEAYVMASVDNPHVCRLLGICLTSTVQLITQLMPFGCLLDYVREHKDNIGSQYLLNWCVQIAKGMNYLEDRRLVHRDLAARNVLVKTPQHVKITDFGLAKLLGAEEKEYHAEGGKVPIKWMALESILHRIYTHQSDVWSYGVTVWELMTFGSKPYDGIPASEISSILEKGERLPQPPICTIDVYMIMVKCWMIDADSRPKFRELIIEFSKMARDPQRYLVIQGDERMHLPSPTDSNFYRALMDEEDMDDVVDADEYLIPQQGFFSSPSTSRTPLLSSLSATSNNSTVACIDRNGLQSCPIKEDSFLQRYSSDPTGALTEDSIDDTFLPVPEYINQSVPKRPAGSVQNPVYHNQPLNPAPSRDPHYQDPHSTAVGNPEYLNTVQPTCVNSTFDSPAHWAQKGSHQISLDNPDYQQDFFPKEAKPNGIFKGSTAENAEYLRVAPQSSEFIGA
Experimental: Cells were plated at a densitity of 400 000 cells/well in 6×12-well plates in a final volume of 1 ml/well in DMEM high glucose+10% FBS +1% Pen/Strep and cultured at 37 C and 5% CO2 overnight. The following day the media was replaced with serum free media and the cells were cultured for a further 24 hours.
Cells were pretreated with compound for 1 hour and then stimulated with 10 ng/mL EGF for 5 minutes. Media was removed and cells were lysed in 100 uL/well of RIPA buffer+1% Protease Inhibitor cocktail+1% Phosphatase inhibitor cocktail. Protein concentrations were determined by
BCA assay. 25μ of cellular protein from each cell treatment was separated by SDS-PAGE. Proteins were transferred to nitrocellulose membranes and blocked with TBS-T+5% non-fat milk. EGFR and phospho-EGFR were detected following incubation overnight at 4° C. with Rabbit anti-phospho-EGFR (Tyr1068) (Cell signaling) diluted 1/1000 and Mouse anti-EGFR (1F4) (Cell signaling) diluted 1/1000 in TBS-T+5% nonfat dry milk and then incubation for 1 h at RT with IR Dye 800CW goat anti-rabbit diluted 1/15000 and with IR Dye 680RD goat anti-mouse diluted 1/15000 in TBS-T+5% nonfat dry milk+0.01% SDS. Antibody binding was quatified using a Li-cor Odyssey CLx. Phospho-EGFR/EGFR ratios were calculated for each test condition of control and test article and the EC50 of inhibiton of EGF-stimulated EGFR phosphorylation was calculated.

splenocytes = assay: Splenic cell proliferation assay (anti-IgM stimulated, Cell Titer-Glo); type: cell-based, mouse (CD1); conditions: Splenocyte; mouse splenocytes, 2.5 μg/ml anti-IgM F(ab')2, 72 h; read-out: Spleen cell EC50
Experimental: Proliferation of splenocytes in response to anti-IgM can be blocked by inhibition of BTK. Splenocytes were obtained from 6 week old male CD1 mice (Charles River Laboratories Inc.). Mouse spleens were manually disrupted in PBS and filtered using a 70um cell strainer followed by ammonium chloride red blood cell lysis. Cells were washed, resuspended in Splenocyte Medium (HyClone RPMI supplemented with 10% heat-inactivated FBS, 0.5X non-essential amino acids, 10 mM HEPES, 50 μM beta mercaptoethanol) and incubated at 37° C., 5% CO2 for 2h to remove adherent cells. Suspension cells were seeded in 96 well plates at 50,000 cells per well and incubated at 37° C., 5% CO2 for 1h. Splenocytes were pre-treated in triplicate with 10,000 nM curves of Formula 1 compounds for 1h, followed by stimulation of cell proliferation with 2.5 μg/ml anti-IgM
F(ab′)2 (Jackson ImmunoResearch) for 72 h. Cell proliferation was measured by Cell Titer-Glo Luminescent Assay (Promega). EC50 values (50% proliferation in the presence of compound as compared to vehicle treated controls) were calculated from dose response compound curves using GraphPad Prism Software.

Structure (SMILES)	microsomal CLint at 1 μM (in vitro) [µL/min/mg]	EC50 [1] [nM]	IC50 (human BTK) [nM]	IC50 (human ErbB2) [nM]	GSH Reactivity GSH Conjugate at 60 minutes [2]	EC50 (EGFR) [nM]	EC50 (splenocytes) [nM]
CC#CC(=O)N[C@H]1C[C@@H](n2nc(-c3ccc(Oc4ccccc4)cc3)c3c(N)ncnc32)C1 [Compound 1]	34.9	1	3	> 1000	7.3 % of total Peaks	5960	0.2
C=CC(=O)N[C@H]1C[C@@H](n2nc(-c3ccc(Oc4ccccc4)cc3)c3c(N)ncnc32)C1 [Compound 2]	15.6	1.9	3	97	14.2 % of total Peaks	376	0.3

From patent US20200247808A1, “Heterocyclic Tec-Family Kinase Inhibitors” (GB005, Inc., priority 2015, published 2020)
